Tests used:
Format in all cases: in vivo
Conditions in all cases: foliar, compared to untreated control leaf disks, read-out: disease control
[1] = test system: Blumeria graminis f. sp. tritici (Erysiphe graminis f. sp. tritici); experiment: Blumeria graminis f. sp. tritici / wheat / leaf disc preventative (powdery mildew on wheat)
Summary of the method: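 Preventative leaf-disc test: compound (200 ppm) was sprayed onto cv. Kanzler wheat segments, which were dusted with conidia from infected plants 1 day after application. After incubation at 20° C and 60% rh, disease control relative to untreated segments was rated 6-8 days after application.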

[2] = test system: Puccinia recondita f. sp. tritici; experiment: Puccinia recondita f. sp. tritici / wheat / leaf disc preventative (brown rust)
Description: Puccinia recondita f. sp. tritici/Wheat/Leaf Disc Preventative (Brown Rust) Wheat leaf segments cv. Kanzler were placed on agar in multiwell plates (24-well format) and sprayed with the formulated test compound diluted in water. The leaf disks were inoculated with a spore suspension of the fungus 1 day after application.

[3] = test system: Puccinia recondita f. sp. tritici; experiment: Puccinia recondita f. sp. tritici / wheat / leaf disc curative (brown rust)
Description: Puccinia recondita f. sp. tritici/Wheat/Leaf Disc Curative (Brown Rust) Wheat leaf segments cv. Kanzler are placed on agar in multiwell plates (24-well format). The leaf segments are inoculated with a spore suspension of the fungus. Plates were stored in darkness at 19° C. and 75% rh. The formulated test compound diluted in water was applied 1 day after inoculation.

Pyrenophora teres = Pyrenophora teres / barley / leaf disc preventative (net blotch)
Description: Pyrenophora teres/Barley/Leaf Disc Preventative (Net Blotch) Barley leaf segments cv. Hasso were placed on agar in a multiwell plate (24-well format) and sprayed with the formulated test compound diluted in water. The leaf segments were inoculated with a spore suspension of the fungus 2 days after application.

Measured: pest or weed control at 200 ppm

CCN(C)/C=N/c1cc(OC)c(O[C@H]2CC[C@@H](C(C)C)CC2)nc1C [Q.248]
≥ 50%: all assays above

CCN(C)/C=N/c1cc(C2CC2)c(O[C@H]2CC[C@@H](C(C)C)CC2)nc1C [Q.249]
≥ 50%: all assays above

C#Cc1cc(/N=C/N(C)CC)c(C)nc1O[C@H]1CC[C@@H](C(C)C)CC1 [Q.250]
≥ 50%: all assays above

CCc1cc(/N=C/N(C)CC)c(C)nc1O[C@H]1CC[C@@H](C(C)C)CC1 [Q.251]
≥ 50%: all assays above

CCN(C)/C=N/c1cc(Br)c(O[C@@H](C)c2cc(F)cc(F)c2)nc1C [Q.260]
≥ 50%: all assays above

CCN(C)/C=N/c1cc(Br)c(O[C@H](C)c2cc(F)cc(F)c2)nc1C [Q.261]
≥ 50%: all assays above

CCN(C)/C=N/c1cc(-c2ccccc2)c(OC2CC=CC2)nc1C [Q.262]
≥ 50%: all assays above

CCN(C)/C=N/c1cc(Br)c(O[C@H]2CC[C@@H](c3ccccc3)CC2)nc1C [Q.269]
≥ 50%: all assays above

C=Cc1ccccc1COc1nc(C)c(/N=C/N(C)CC)cc1Br [Q.275]
≥ 50%: all assays above

C=Cc1cccc(COc2nc(C)c(/N=C/N(C)CC)cc2Br)c1 [Q.277]
≥ 50%: all assays above

C=Cc1cccc(C(C)Oc2nc(C)c(/N=C/N(C)CC)cc2Br)c1 (stereo not drawn) [Q.278]
≥ 50%: all assays above

CCN(C)/C=N/c1cc(C(C)C)c(OC(C)c2cc(F)cc(F)c2)nc1C (stereo not drawn) [Q.280]
≥ 50%: all assays above

CCN(C)/C=N/c1cc(Br)c(OC2CCC(=O)C=C2C)nc1C (stereo not drawn) [Q.282]
≥ 50%: all assays above

CCc1cccc(C(C)Oc2nc(C)c(/N=C/N(C)CC)cc2Br)c1 (stereo not drawn) [Q.284]
≥ 50%: all assays above

CCc1ccccc1COc1nc(C)c(/N=C/N(C)CC)cc1Br [Q.285]
≥ 50%: all assays above

CCN(C)/C=N/c1cc(Br)c(OCc2ccccc2C(F)F)nc1C [Q.289]
≥ 50%: all assays above

CCN(C)/C=N/c1cc(Br)c(OCc2cccc(C(C)F)c2)nc1C (stereo not drawn) [Q.291]
≥ 50%: all assays above

CCN(C)/C=N/c1cc(Br)c(OC(C)c2cccc(C(C)F)c2)nc1C (stereo not drawn) [Q.292]
≥ 50%: all assays above

C=C1CCC(Oc2nc(C)c(/N=C/N(C)CC)cc2Br)CC1 [Q.293]
≥ 50%: all assays above

CCN(C)/C=N/c1cc(Br)c(OC(C)c2ccccc2F)nc1C (stereo not drawn) [Q.299]
≥ 50%: all assays above

CCN(C)/C=N/c1cc(Br)c(OC(C)c2ccccc2Cl)nc1C (stereo not drawn) [Q.301]
≥ 50%: all assays above

CCN(C)/C=N/c1cc(Br)c(OCc2ccccc2Br)nc1C [Q.302]
≥ 50%: all assays above

CCN(C)/C=N/c1cc(Br)c(OCc2ccccc2C#N)nc1C [Q.304]
≥ 50%: all assays above

CCN(C)/C=N/c1cc(Br)c(OC2CCC(C)C(C)CC2)nc1C (stereo not drawn) [Q.308]
≥ 50%: all assays above

CCN(C)/C=N/c1cc(Br)c(OC2CC(C)=C(C)C2)nc1C [Q.315]
≥ 50%: all assays above

CCN(C)/C=N/c1cc(Br)c(OC2CC=CCC2)nc1C (stereo not drawn) [Q.316]
≥ 50%: all assays above

CCN(C)/C=N/c1cc(Br)c(OCc2ccc(C)cc2C)nc1C [Q.324]
≥ 50%: all assays above

CCN(C)/C=N/c1cc(Br)c(OC(C)c2cccc(CCc3ccccc3)c2)nc1C (stereo not drawn) [Q.329]
≥ 50%: all assays above

CCN(C)/C=N/c1cc(Br)c(OC2CCC(C(C)C)CC2)nc1C (stereo not drawn) [Q.334]
≥ 50%: all assays above

CCN(C)/C=N/c1cc(Br)c(OCc2ccccc2SC)nc1C [Q.335]
≥ 50%: all assays above

CCN(C)/C=N/c1cc(Br)c(OCc2ccccc2[S+](C)[O-])nc1C (stereo not drawn) [Q.336]
≥ 50%: all assays above

CCN(C)/C=N/c1cc(Br)c(OCc2ccccc2S(C)(=O)=O)nc1C [Q.337]
≥ 50%: all assays above

CCCc1cccc(C(C)Oc2nc(C)c(/N=C/N(C)CC)cc2Br)c1 (stereo not drawn) [Q.344]
≥ 50%: all assays above

— patent US9326513B2, “Fungicidal compositions” (Syngenta Participations AG, priority 2011, dated 2016)
